From paper PMC4403042, “Atrial-like cardiomyocytes from human pluripotent stem cells are a robust preclinical model for assessing atrial-selective pharmacology” (EMBO Molecular Medicine, 2015)

Key:
[1] = test system: NKX2-5-eGFP/w hESCs; assay: Cardiac differentiation of hESCs with RA, flow cytometry for GFP at day 15; assay type: cell-based, human
Text: A cocktail of cytokines (Fig1A) was used to initiate cardiac differentiation in NKX2-5-eGFP/w hESCs as described previously (Ng et al, [2008]; Elliott et al, [2011]). To direct differentiating hESCs toward an atrial phenotype, timing and concentration of treatment with RA were carefully optimized (Supplementary Fig S1A–C). We hypothesized that specification of CM subtypes in vitro occurs post-mesoderm formation and prior to the onset of cardiac progenitor stage. Accordingly, embryoid bodies (EBs) were supplemented with RA from day 4, just after the transient expression of early cardiac mesoderm marker, MESP1, until day 7, a time point at which key transcription factors such as NKX2.5, GATA4 and MEF2C important for commitment and specification of cardiovascular lineages are activated (Supplementary Fig S1A).
Therefore, treatment of differentiating hESCs with 1 μmol/l of RA from day 4 to 7 was considered to be most suitable for driving atrial differentiation. As a control, every experiment included parallel differentiating cultures treated with 0.002% DMSO (the final concentration in RA-treated cultures) from day 4 to 7 (Fig1A).
A transgenic NKX2-5-eGFP/w hESC line that faithfully reports endogenous NKX2.5 expression by GFP was described previously (Elliott et al, [2011]). […]
Gene expression was determined on the HumanHT-12 v4 Expression BeadChip at ServiceXS, Leiden, The Netherlands. […]

[2] = test system: differentiating hESCs; assay: AP characterization of CMs generated from RA-treated differentiations (patch-clamp); assay type: cell-based, human
Text: To study the electrical phenotype of CMs treated with RA during differentiation, we measured APs of dissociated single cells using the patch-clamp method (Fig3). Representative APs stimulated at 1 Hz are shown in Fig3B. The AP of a CM treated with RA during differentiation (RA) depicts an AP with a fast phase-1 repolarization and a plateau phase with a more negative potential compared to a control (CT) CM (Fig3B).
Spin EBs resulting from control and RA-treated differentiations were dissociated at day 17 to single cells using TrypLE™ Select (Life Technologies) and plated on gelatin-coated coverslips. Electrophysiological measurements were performed 10–14 days after dissociation from intrinsically quiescent single GFP^+ CMs that were able to contract upon field stimulation.
APs and membrane currents from hESC-CMs were recorded with the amphotericin-B-perforated patch-clamp technique at 36 ± 0.2°C using an Axopatch 200B amplifier (Molecular Devices, Sunnyvale, CA, USA). […] AP measurements were low-pass-filtered (cutoff frequency 10 kHz) and digitized at 40 kHz; membrane currents were measured at 1 and 4 kHz, respectively. Capacitance and series resistance were compensated by ≥ 80%, and APs were corrected for the calculated liquid junction potential (Barry & Lynch, [1991]). […]

Compound: CC1=C(/C=C/C(C)=C/C=C/C(C)=C/C(=O)O)C(C)(C)CCC1 [RA, all-trans retinoic acid]
- percentage of GFP+ cells at day 15 ([1]; RA 1 μmol/l day 4 to 7, flow cytometry, control 65%): 50%
- effect on cardiac differentiation (percentage of GFP+ cells at day 15) ([1]; RA 1–10 nmol/l day 4 to 7): enhanced cardiac differentiation
- APAplat of individual cells ([2]; RA group, 1 Hz, CT group > 80 mV): < 80 mV
- cells with atrial-like action potential properties ([2]; RA treatment group, of 26 cells): about 85%
